According to ChEMBL document CHEMBL4354784, “On the road to structure-based development of anti-virulence therapeutics targeting the type III secretion system injectisome” (Medchemcomm, 2019):

Assays:
[1] = Inhibition of Pseudomonas aeruginosa MDM1912 T3SS assessed as reduction in ExoS-BLA fusion protein secretion by measuring hydrolysis of the chromogenic beta-lactamase substrate nitrocefin by colorimetric method
Salmonella enterica = assay: Antimicrobial activity against Salmonella enterica infected in mouse assessed as increasing survival rate on day 9 relative to control; assay type: functional
[2] = system: Yersinia pseudotuberculosis; assay: Inhibition of Yersinia pseudotuberculosis serotype 3 T3SS assessed as reduction in YopD protein secretion at > 13 uM preincubated for 1 hr at 26 degC and subsequently incubated for 3 hrs at 37 degC by Western blot analysis relative to control
[3] = system: Yersinia pseudotuberculosis; assay: Inhibition of Yersinia pseudotuberculosis serotype 3 T3SS assessed as reduction in YopD protein expression at > 13 uM preincubated for 1 hr at 26 degC and subsequently incubated for 3 hrs at 37 degC by Western blot analysis relative to control
[4] = Inhibition of Yersinia pseudotuberculosis serotype 3 T3SS assessed as reduction in YopH protein secretion using p-nitro phenyl phosphat/2-(N-morpholino)ethanesulfonic acid as substrate preincubated for 1 hr at 26 degC and subsequently incubated for 2 hrs at 37 degC followed by addition of substrate and measured after 15 mins
Pseudomonas aeruginosa [5] = assay: Antimicrobial activity against Pseudomonas aeruginosa infected in mouse assessed as increasing survival rate after 6 days (RVB = 20%); assay type: functional
Pseudomonas aeruginosa [6] = assay: Antimicrobial activity against Pseudomonas aeruginosa; assay type: functional, organism-based

O=C(N/N=C/c1cc(Br)cc(Br)c1O)c1ccc([N+](=O)[O-])cc1
IC50 [1]: 0.8 µM

Cc1ccc(C(C)C)c(O)c1 [THYMOL]
Survival (Salmonella enterica): 70%

Oc1ccc([C@@H]2c3c(O)cc(O)cc3[C@@H]3c4c(cc(O)cc4[C@H]2[C@@H]2c4cc(O)cc5c4[C@@H](c4cc(O)cc(O)c4[C@H]2c2ccc(O)cc2)[C@H](c2ccc(O)cc2)O5)O[C@H]3c2ccc(O)cc2)cc1
inhibition [2]: 100%
inhibition [3]: 100%
IC50 [4]: > 10 µM

NCCCNCCCCNCCCNC(=O)c1ccccc1C1=c2cc3c4c(c2Oc2c1cc1c5c2CCCN5CCC1)CCC[N+]=4CCC3
Survival (Pseudomonas aeruginosa [5]): 100%
EC50 (Pseudomonas aeruginosa [6]): 10 µM
MIC50 (Pseudomonas aeruginosa [6]): > 10 µM
